The test system of experiment [1] is platelet aggregation induced by PAF. Particulars: known property of the reference compound; cited from earlier work.
Experiment [2] has the same test system. The experiment in a line: PAF-induced platelet aggregation inhibition (method of Born, aggregometer, platelet rich plasma). Particulars: Oryctolagus cuniculus, Platelet, 2 min, in vitro, rabbit PRP 50-55×10^4 /μl, 37° C., PAF C16 final 20 nM added 2 minutes after compound; read-out: IC50 (concentration of the test compounds which inhibit 50% platelet aggregation). Format: cell-based. The procedure: Mature male rabbits (NIBS-JW, RABITON Institute Inc., weighing 2.2-2.5 kg) were used. […] (The total volume of blood sample in each tube was adjusted to 8 ml.)
The blood sample in each tube was gently shaken and then centrifuged for 10 minutes at 200 g at 22° C. to give platelet rich plasma (PRP). The remaining blood was further centrifuged at 3,000 rpm (about 1,900 g) for 10 minutes at 22° C. to give platelet-poor plasma (PPP).
PRP was diluted with PPP to prepare a blood sample whose platelet number was 50-55×10^4 /μl. The sample was then subjected to a platelet aggregation test.
A volume of 230 μl of PRP, whose platelet number was adjusted to 50-55×10^4 /μl, was placed in a measuring cuvette and set in the aggregometer. PRP was warmed at 37° C. for 1 minute with stirring at 1,200 rpm, and then a solution of the test compound [dimethylsulfoxide solution (1μl) of the compound+saline (9μl)] was added thereto. Exactly 2 minutes later, 10 μl of platelet activating factor (PAF, C16) (final concentration: 20 nM) was added as a platelet aggregating agent, and the change in light transmission caused by platelet aggregation was recorded.
The light transmissions of PRP and PPP were taken as 0% and 100% aggregation, respectively, and the maximum light transmission after addition of an aggregating agent was made the maximum aggregation. The inhibition rate of the platelet aggregation was expressed as the percentage of the maximum aggregation by a test compound to that by a control (Vehicle added group).

For the molecule `CCCCC[C@H](O)/C=C/[C@H]1[C@H](O)CC(=O)[C@@H]1CCCCCCC(=O)O` [PGE1, reference compound], the “inhibition of PAF-induced platelet aggregation (known)” value in experiment [1] is on record as “potently inhibit the PAF-induced platelet aggregation”. In addition, in experiment [2], the IC50 amounted to 259 nM.

Values taken from patent US5138067A, “Lipid derivatives” (Shionogi & Co. Ltd., priority 1991, dated 1992).
